Results from patent publication US11826332B2, “Antimicrobial compositions and uses thereof” (Board of Regents, The University of Texas System, priority 2016, dated 2023).

Legend:
[1] = tested on: methicillin resistant Staphylococcus aureus (MRSA); experiment: Disinfection of colonized urinary catheter external surface, transient contact; format: cell-based; conditions: in 1.5% CMC solution; transient contact exposure of a few minutes; three 1 cm catheter segments
[2] = tested on: Candida albicans (C. albicans); experiment: as above; format: cell-based; conditions: in 1.5% CMC solution; transient contact exposure of a few minutes; three 1 cm catheter segments
[3] = tested on: vancomycin resistant Enterococcus (VRE); experiment: as above; format: cell-based; conditions: in 1.5% CMC solution; transient contact exposure of a few minutes; three 1 cm catheter segments
[4] = tested on: Escherichia coli (E. coli); experiment: as above; format: cell-based; conditions: in 1.5% CMC solution; transient contact exposure of a few minutes; three 1 cm catheter segments
[5] = tested on: methicillin-resistant Staphylococcus aureus (MRSA) biofilm; experiment: Biofilm eradication model on silicone discs, time to complete eradication; format: cell-based; conditions: Table 2; disinfecting solutions pH 4.0-4.5; >120 = not completely eradicated within 120 minutes exposure
[6] = tested on: Candida glabarata (CG) biofilm; experiment: as above; format: cell-based; conditions: Table 2; disinfecting solutions pH 4.0-4.5; >120 = not completely eradicated within 120 minutes exposure
[7] = tested on: Candida albicans (CA) biofilm; experiment: as above; format: cell-based; conditions: Table 2; disinfecting solutions pH 4.0-4.5; >120 = not completely eradicated within 120 minutes exposure
[8] = tested on: multidrug-resistant Pseudomonas aeruginosa (PS) biofilm; experiment: as above; format: cell-based; conditions: Table 2; disinfecting solutions pH 4.0-4.5; >120 = not completely eradicated within 120 minutes exposure
[9] = CRC Handbook of Chemistry and Physics; cited from earlier work
MRSA biofilm = experiment: Modified Kuhn's model, quantitative time-to-kill biofilm eradication; format: cell-based, Staphylococcus aureus; conditions: 60 minutes exposure
Experimental: In vitro antimicrobial assessments of PG, CAP, and PG+CAP solutions were conducted using an established time-to-kill biofilm eradication model, the modified Kuhn's model (Kuhn et al., 2002). Briefly, 1 cm diameter silicone discs, were placed into a 24-well tissue culture plate and incubated with donor human plasma at 37° C. for 24 hours. The plasma was then removed, replaced with 1 mL of 5.5×10^5 CFU of bacterial (MRSA, Pseudomonas aeruginosa) or yeast (Candida albicans) inocula and incubated at 37 C for an additional 24 hrs. Inoculum was removed and the discs were washed shaking at 100 rpm for 30 minutes in 0.9% sterile saline in order to remove any planktonic organisms. After washing, discs were exposed to 1 mL various disinfectant solutions and incubated at 37° C. for 30 min or 60 min. Saline flush solution was used a negative control. […] Resulting solutions were quantitatively cultured by plating 100 μL onto Muller-Hinton (for bacteria) or Sabouraud dextrose (for yeast) agar. […]
Statistical analyses: The Kruskal-Wallis test was used to determine whether there was a significant difference in the medians in any of the lock solutions tested. Pairwise comparisons were assessed using the Mann-Whitney U test to […] performance of PG+CAP and CAP lock solutions at specified time points. […]

Structure (SMILES) | Median recoveries, MRSA [1] | Median recoveries, C. albicans [2] | Median recoveries, VRE [3] | Median recoveries, E. coli [4] | time to complete biofilm eradication, MRSA [5] [min] | time to complete biofilm eradication, CG [6] [min] | time to complete biofilm eradication, CA [7] [min] | time to complete biofilm eradication, PS [8] [min] | pK of CAP [9] | reductions in viable cells in MRSA biofilm (MRSA biofilm)
OO [0.3% H2O2, hydrogen peroxide] | 0 CFU/cm of catheter | >50,000 CFU/cm of catheter | >50,000 CFU/cm of catheter | 2700 CFU/cm of catheter |  |  |  |  |  | 
O=[N+]([O-])OCC(CO[N+](=O)[O-])O[N+](=O)[O-] [0.03% nitroglycerin (GTN), glyceryl trinitrate] |  |  |  |  | >120 | >120 | >120 | >120 |  | 
CCCCCCCC(=O)O [0.4% Caprylic Acid (CAP), caprylic acid (octanoic acid)] |  |  |  |  | 120 | 60 | 120 | 60 | approximately 4.8 | able to reduce, but not completely eradicate
